System: prothrombin time (PT) of normal citrated blood
Experiment: Three wet-chemistry Owren PT methods (Simple Simon PT) on normal citrated blood with added apixaban
Assay type: biochemical
Description: Experimental work was performed with the commercially available ambient room temperature coagulation instrument, Simple Simon P T Zafena A B, Linköping, Sweden, with functions described in EP 1 636 595 B2. One instrument or reader was used for each PT-method. Alternatively, the same instrument could be used for all PT-methods.
The three instruments were used together standing next to one another on a laboratory bench in thermal equilibrium with the ambient room temperature of the laboratory.
The PT-reagent was the one delivered together with lot N223M of the Simple Simon PT product, a reagent of Owren-type that thus contains effective amounts of thromboplastin, fibrinogen and FV (the thromboplastin of rabbit brain origin and the fibrinogen and the FV of bovine blood plasma origin). Other Owren type reagents could also be used.
The reagent was in portions of 200 μL to which sample, citrated blood or citrated blood plasma, was added and mixed. The addition was by an end-to-end plastic capillary mounted at one end of a tubular body with a displacement mechanism in the other end, this to allow convenient mixing of sample and reagent. Such Mixxocaps with 10 μL capillaries are supplied with the Simple Simon PT product. To perform the experiments described, some Mixxocaps were fitted with 20 μL capillaries, or 5 μL capillaries instead of the 10 μL capillaries with which they were supplied by the manufacturer.
These blood samples and a blood sample with an INR 2.3 were analyzed by Simple Simon PT using sample volumes of 20 μL, 10 μL and 5 μL in 200 μL reagents. […]

[1] = apixaban 63 μg/L in normal citrated blood
[2] = apixaban 125 μg/L in normal citrated blood
[3] = apixaban 250 μg/L in normal citrated blood
[4] = apixaban 500 μg/L in normal citrated blood
[5] = apixaban 714 μg/L in normal citrated blood
[6] = apixaban 1000 μg/L in normal citrated blood

Compound: COc1ccc(-n2nc(C(N)=O)c3c2C(=O)N(c2ccc(N4CCCCC4=O)cc2)CC3)cc1 [apixaban]
- INR 10 μL sample [1]: 1.19
- INR 20 μL sample [1]: 1.41
- INRc 5 μL sample [1]: 1.06
- INRc 10 μL sample [1]: 1.12
- INRc 20 μL sample [1]: 1.21
- INRo [1]: 0.96
- ΔINRc 10 μL − 5 μL [1]: 0.06
- ΔINRc 20 μL − 5 μL [1]: 0.15
- INR 10 μL sample [2]: 1.32
- INR 20 μL sample [2]: 1.75
- INRc 5 μL sample [2]: 1.16
- INRc 10 μL sample [2]: 1.26
- INRc 20 μL sample [2]: 1.49
- INRo [2]: 1.02
- ΔINRc 10 μL − 5 μL [2]: 0.10
- ΔINRc 20 μL − 5 μL [2]: 0.32
- INR 5 μL sample [3]: 1.32
- INR 10 μL sample [3]: 1.64
- INR 20 μL sample [3]: 2.61
- INRc 5 μL sample [3]: 1.39
- INRc 10 μL sample [3]: 1.60
- INRc 20 μL sample [3]: 2.18
- INRo [3]: 1.07
- ΔINRc 10 μL − 5 μL [3]: 0.21
- ΔINRc 20 μL − 5 μL [3]: 0.79
- INR 5 μL sample [4]: 1.66
- INR 10 μL sample [4]: 2.27
- INR 20 μL sample [4]: 4.58
- INRc 5 μL sample [4]: 1.81
- INRc 10 μL sample [4]: 2.29
- INRc 20 μL sample [4]: 3.73
- INRo [4]: 1.09
- ΔINRc 10 μL − 5 μL [4]: 0.48
- ΔINRc 20 μL − 5 μL [4]: 1.92
- INR 5 μL sample [5]: 1.87
- INR 10 μL sample [5]: 2.78
- INR 20 μL sample [5]: 6.06
- INRc 5 μL sample [5]: 2.08
- INRc 10 μL sample [5]: 2.86
- INRc 20 μL sample [5]: 4.88
- INRo [5]: 0.91
- ΔINRc 10 μL − 5 μL [5]: 0.78
- ΔINRc 20 μL − 5 μL [5]: 2.80
- INR 10 μL sample [6]: 3.50
- INR 20 μL sample [6]: 8.76
- INRc 5 μL sample [6]: 2.51
- INRc 10 μL sample [6]: 3.69
- INRc 20 μL sample [6]: 6.94
- INRo [6]: 0.74
- ΔINRc 10 μL − 5 μL [6]: 1.16
- ΔINRc 20 μL − 5 μL [6]: 4.43
